Results published in patent US20060223879A1, “Non-steroidal farnesoid x receptor modulators” (priority 2002, published 2006).
“And” between values parts separate entries of the source, which are not always exact repeats. Identical values can stand only once. “Also recorded” adds a separate entry of the source. Like-named read-outs stand apart in the source and are kept apart here.

Target: T1, FXR (Homo sapiens, UniProt Q96RI1)
T1 construct: using a full length FXR on a natural response element; expressed in transfected cells
T1 sequence (Q96RI1 1-486): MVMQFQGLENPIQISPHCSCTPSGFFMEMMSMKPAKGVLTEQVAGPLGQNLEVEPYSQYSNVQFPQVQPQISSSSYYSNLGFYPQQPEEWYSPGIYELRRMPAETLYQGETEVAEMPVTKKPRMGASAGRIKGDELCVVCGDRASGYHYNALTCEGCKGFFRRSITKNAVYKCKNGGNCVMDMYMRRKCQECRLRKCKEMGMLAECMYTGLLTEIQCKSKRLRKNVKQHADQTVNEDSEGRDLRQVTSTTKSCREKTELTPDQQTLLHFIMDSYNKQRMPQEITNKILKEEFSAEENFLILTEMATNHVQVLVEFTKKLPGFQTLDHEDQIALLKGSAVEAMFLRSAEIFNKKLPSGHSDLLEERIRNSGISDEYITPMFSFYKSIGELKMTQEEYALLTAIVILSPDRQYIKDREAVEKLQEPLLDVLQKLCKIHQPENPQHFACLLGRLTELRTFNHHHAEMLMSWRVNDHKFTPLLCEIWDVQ
Test: cell-based transcription assay, FXR responsive promoter linked to a luciferase reporter
Design: RE: scale not given here
Details: for RE: RE not defined in the source
From the text: In addition to ensuring that only cell permeable compounds were selected for further optimization, this approach allows for the detection of FXR activation in a natural system (i.e., correct folding of the protein and in the presence of a complete compliment of co-activators and co-repressors).
The feasibility of creating high throughput screens (XIS) for ORs was explored using FXR as a candidate orphan receptor (OR) with a known activator, chenodeoxycholic acid (CDCA) as a ligand. The screen is based on the co-transfection of a full-length receptor with the reporter vector containing a natural hormone response element under a minimal eukaryotic promoter. […] Using this 384-well format, the high throughput screening (HTS) approach to FXR as a candidate OR was employed. […] A central question in the feasibility studies is whether this library is suitable for screening for nuclear receptor ligands. Samples of this library were first reformatted into a 384-well format and then subjected to the FXR cell-based assays described above and assessed for FXR-mediated transcriptional activity. Cells were exposed to approximately 10 μM of sample for 18 hrs prior to washing and luciferase analysis.
EC50 values were determined with Prism 3.0 software via the activity of the subject compound in the previously described cell based assay.

[1] = Tables 1-15, FXR activation, cell-based reporter assay, read-out: EC50
[2] = FXR activation, cell-based reporter assay, read-out: EC50

SMILES | EC50 [1] | RE (Tables 1-15) | FXR activation (in words) (cell-based reporter assay) | EC50 [2] | EC50 (library screening hits and leads, read-out: activity (EC50))
COC(=O)/C=C/c1cccc(N(Cc2ccc3c(c2OC)OC(C)(C)[C@@H](OC(C)=O)[C@H]3OC(C)=O)C(=O)c2ccccc2)c1 (relative stereo) [Compound 95] | – | – | Nor did the addition of H-bond acceptors such as in 89, 90, 95, 99 and 101 improve the ability of the parent compound 68 to activate FXR | – | –
COC(=O)/C=C/c1cccc(N(Cc2ccc(-c3cc(Cl)cc(Cl)c3)cc2)C(=O)C(C)C)c1 [Compound 221] | 561 nM | 0.54 | – | – | –
COC(=O)/C=C/c1cccc(N(Cc2ccc(-c3cccc(OC(F)(F)F)c3)cc2)C(=O)C(C)C)c1 [Compound 254] | 247 nM | 0.59 | – | – | –
COC(=O)/C=C/c1cccc(N(Cc2ccc3c(c2OC)OC(C)(C)C=C3)C(=O)C2CC2)c1 [Compound 29] | – | – | substantially better activator of FXR than compound 26; also recorded: capable of activating FXR to a significant extent | – | –
COC(=O)/C=C/c1cccc(N(Cc2ccc3c(c2OC)OC(C)(C)C=C3)S(=O)(=O)c2ccc(C)cc2)c1 [Compound 82] | – | – | inactive | – | –
COC(=O)/C=C/c1cccc(N(Cc2ccc(-c3ccc(OC(F)(F)F)cc3)cc2)C(=O)C(C)C)c1 [Compound 251] | 219 nM | 0.78 | – | – | –
CCOc1cccc(-c2ccc(CN(C(=O)C(C)C)c3cccc(/C=C/C(=O)OC)c3)cc2)c1 [Compound 227] | 173 nM | 1.03 | – | – | –
COC(=O)/C=C/c1cccc(N(Cc2ccc(-c3ccc(C)cc3)cc2)C(=O)NC(C)C)c1 [Compound 237] | 449 nM | 0.80 | – | – | –
COC(=O)C=Cc1cccc(N(Cc2ccc(C=Cc3ccccc3)cc2)C(=O)C2CCCCC2)c1 [Compound 121] | – | 1.55 | excellent activity; also recorded: among the most active | 36 nM | –
COC/C=C/c1cccc(N(Cc2ccc3c(c2OC)OC(C)(C)C=C3)C(=O)C2CC2)c1 [Compound 33] | – | – | capable of activating FXR to a significant extent | – | –
COC(=O)/C=C/c1cccc(N(Cc2ccc(-c3ccc(OC)cc3)cc2)C(=O)NC(C)C)c1 [Compound 231] | 144 nM | 1.16 | – | – | –
COC(=O)/C=C/c1ccc(N(Cc2ccc3c(c2OC)OC(C)(C)C=C3)C(=O)C2CC2)cc1 [Compound 53] | – | – | does not activate FXR under the conditions tested | – | –
COC(=O)/C=C/c1cccc(N(Cc2ccc(-c3ccccc3OC)cc2)C(=O)NC(C)C)c1 [Compound 220] | 4010 nM | 0.09 | – | – | –
COC(=O)/C=C/c1cccc(N(Cc2ccc(-c3ccc(F)c(Cl)c3)cc2)C(=O)C(C)C)c1 [Compound 248] | 129 nM | 1.64 | – | – | –
COC(=O)/C=C/c1cccc(N(Cc2ccc(-c3cc(Cl)cc(Cl)c3)cc2)C(=O)NC(C)C)c1 [Compound 222] | > 10000 nM | 0.10 | – | – | –
COC(=O)/C=C/c1cccc(N(Cc2ccc3c(c2OC)OC(C)(C)C2C3C2(Cl)Cl)C(=O)c2ccccc2)c1 (centres unmarked) [Compound 102] | – | 0.64 | – | 333 nM | –
COc1c(CN(C(=O)C2CC2)c2cccc(/C=C/C#N)c2)ccc2c1OC(C)(C)C=C2 [Compound 34] | – | – | inactive | – | –
COC(=O)/C=C/c1cccc(N(Cc2ccc(-c3ccc(C)cc3)cc2)C(=O)C(C)C)c1 [Compound 236] | 118 nM | 1.48 | excellent activity | – | –
CCOc1cccc(-c2ccc(CN(C(=O)NC(C)C)c3cccc(/C=C/C(=O)OC)c3)cc2)c1 [Compound 228] | 2350 nM | 0.33 | – | – | –
COc1cc(CN(CC(C)C)C(=O)C2CCCCC2)cc2c1OC(C)(C)C=C2 [Compound 16] | – | – | – | – | 5000 to 10000 nM

Continued, values first:

EC50 [1] | RE (Tables 1-15) | FXR activation (in words) (cell-based reporter assay) | EC50 [2] | EC50 (library screening hits and leads, read-out: activity (EC50)) | SMILES
150 nM | 0.12 | excellent activity | – | – | COC(=O)/C=C/c1cccc(N(Cc2ccc(/C=C/c3c(Cl)cccc3Cl)cc2)C(=O)C2CCCCC2)c1 [Compound 177]
> 1000 nM | 1.85 | – | – | – | COC(=O)C=Cc1cccc(N(Cc2ccc(C=CC(=O)NCC(C)C)cc2)C(=O)C2CCCCC2)c1 [Compound 155]
65 nM | 1.33 | excellent activity | – | – | COC(=O)/C=C/c1cccc(N(Cc2ccc(/C=C/c3ccccc3)cc2)C(=O)C(C)C)c1 [Compound 198]
342 nM | 0.83 | among the least active | – | – | COC(=O)/C=C/c1cccc(N(Cc2ccc(/C=C/c3ccc(C)cc3)cc2)C(=O)C2CCCCC2)c1 [Compound 174]
> 1000 nM | 1.06 | marked decline in potency | – | – | CC(C)(C)OC(=O)C=Cc1ccc(CN(C(=O)C2CCCCC2)c2cccc(C=CC(=O)OC(C)(C)C)c2)cc1 [Compound 134]
> 1000 nM | 0.87 | – | – | – | COC(=O)C=Cc1ccc(CN(C(=O)C2CCCCC2)c2cccc(C=CC(=O)OC)c2)cc1 [Compound 150]
187 nM | 1.84 | excellent activity | 127 to 250 nM | – | COC(=O)/C=C/c1cccc(N(Cc2ccc(/C=C/C(=O)OC(C)(C)C)cc2)C(=O)C2CCC2)c1 [Compound 141]
132 nM | 1.38 | – | – | – | COC(=O)/C=C/c1cccc(N(Cc2ccc(-c3ccc(C(C)(C)C)cc3)cc2)C(=O)C2CCCCC2)c1 [Compound 262]
– | 1.19 | excellent activity | – | – | COC(=O)/C=C/c1cccc(N(Cc2ccc(/C=C/c3ccc(F)cc3)cc2)C(=O)C(C)C)c1 [Compound 205]
> 1000 nM | 0.11 | – | – | – | COC(=O)/C=C/c1cccc(N(Cc2cccc(OC)c2)C(=O)C2CCCCC2)c1 [Compound 115]
70 nM | 1.17 | excellent activity | – | – | COC(=O)/C=C/c1cccc(N(Cc2ccc(/C=C/c3ccccc3F)cc2)C(=O)C(C)C)c1 [Compound 193]
431 nM | 0.89 | – | – | – | COC(=O)/C=C/c1cccc(N(Cc2ccc(/C=C/c3ccccc3F)cc2)C(=O)NC(C)C)c1 [Compound 194]
> 1000 nM | 0.09 | inactive | – | – | COC(=O)/C=C/c1cccc(N(Cc2ccccc2)C(=O)C2CCCCC2)c1 [Compound 110]
163 nM | 1.97 | – | – | – | COC(=O)C=Cc1cccc(N(Cc2ccc(C=CC(=O)OC(C)C)cc2)C(=O)C2CCCCC2)c1 [Compound 152]
77 nM | 1.51 | – | – | – | COC(=O)/C=C/c1cccc(N(Cc2ccc(-c3cccc(OC)c3)cc2)C(=O)C2CCCCC2)c1 [i]
77 nM | 0.12 | excellent activity | – | – | COC(=O)/C=C/c1cccc(N(Cc2ccc(-c3c(OC)cccc3OC)cc2)C(=O)C2CCCCC2)c1 [Compound 256]
89 nM | 1.71 | excellent activity | – | – | COC(=O)/C=C/c1cccc(N(Cc2ccc(-c3ccc(OC)cc3)cc2)C(=O)C2CCCCC2)c1 [Compound 229]
– | 0.40 | – | 358 nM and 348 nM | – | COC(=O)/C=C/c1cccc(N(Cc2ccc3c(c2OC)OC(C)(C)C=C3)C(=O)C2CCCCC2)c1 [Compound 65]
2830 nM | 0.45 | – | – | – | CC(C)(C)OC(=O)C=Cc1ccc(CN(C(=O)C2CCCCC2)c2cccc(C=CCOc3ccccc3)c2)cc1 [Compound 138]
348 nM | 0.91 | – | – | – | COC(=O)/C=C/c1cccc(N(Cc2ccc(/C=C/c3ccc(F)cc3)cc2)C(=O)NC(C)C)c1 [Compound 206]
467 nM | 0.61 | – | – | – | COC(=O)/C=C/c1cccc(N(Cc2ccc(/C=C/c3cccc(F)c3)cc2)C(=O)NC(C)C)c1 [Compound 203]
250 nM | 1.88 | – | 127 to 250 nM | – | COC(=O)/C=C/c1cccc(N(Cc2ccc(/C=C/C(=O)OC(C)(C)C)cc2)C(=O)C2CC2)c1 [Compound 140]
264 nM | 1.09 | excellent activity | – | – | COC(=O)/C=C/c1cccc(N(Cc2ccc(/C=C/c3cccc(Cl)c3)cc2)C(=O)C(C)C)c1 [Compound 181]
165 nM | 1.41 | excellent activity | – | – | COC(=O)C=Cc1cccc(N(Cc2ccc(C=Cc3cccc(Cl)c3)cc2)C(=O)C2CCCCC2)c1 [Compound 180]
310 nM | 0.62 | – | – | – | COC(=O)C=Cc1cccc(N(Cc2ccc(C=Cc3ccccn3)cc2)C(=O)C(C)C)c1 [Compound 208]
